Counter-ions that a name gives are not always drawn.
Experiments:
[1] = general description of the UV filter; cited from earlier work
[2] = Measurement of interfacial tension (polarity index) of emollients; format: physicochemical; details: interfacial tension emollient/water, Tensimat Densimat TD2000
From the text: The term “polarity index” refers to non-polar or polar oils. Non-polar oils are mainly based on hydrocarbons and lack an electronegative element, such as oxygen. In contrast, polar oils contain heteroatoms that differ in electronegativity, which results in a dipole moment. However, such oils are still insoluble in water, i.e. hydrophob. The polarity index can be determined by measuring the interfacial tension between the respective oil and water.
Interfacial tension of the respective emollients as listed below was measured using a Tensimat Densimat TD2000.

Row | SMILES | absorption maximum [1] [nm] | polarity index [2] [mN/m]
1 | CCCCCCOC(=O)c1ccccc1C(=O)c1ccc(N(CC)CC)cc1O [DHHB, hexyl 2-[4-(diethylamino)-2-hydroxybenzoyl]benzoate] | 354 | –
2 | CCCCOC(=O)CC(O)(CC(=O)OCCCC)C(=O)OCCCC [tributyl citrate] | – | 10
3 | CCCCCCCCCCC(CO)CCCCCCCC (centres unmarked) [octyldodecanol] | – | 25
4 | O=C(OCCc1ccccc1)c1ccccc1 [phenethyl benzoate] | – | 19
5 | COc1ccc(C(=O)CC(=O)c2ccc(C(C)(C)C)cc2)cc1 [BMDBM, 1-(4-(1,1-dimethylethyl)phenyl)-3-(4-methoxyphenyl)propane-1,3-dione] | 357 | –
6 | CCCCC(CC)COC(=O)/C=C/c1ccc(OC)cc1 (centres unmarked) [ethylhexyl methoxy cinnamate, 2-Ethylhexyl-(2E)-3-(4-methoxyphenyl)acrylate] | 310 | –
7 | CCCCOC(=O)CCCCC(=O)OCCCC [dibutyl adipate] | – | 14
8 | c1ccc(-c2ccc(-c3nc(-c4ccc(-c5ccccc5)cc4)nc(-c4ccc(-c5ccccc5)cc4)n3)cc2)cc1 [tris-biphenyl triazine, 2,4,6-Tris(biphenyl-4-yl)-1,3,5-triazine] | 310 | –
9 | CC(C)OC(=O)CCCCCCCCC(=O)OC(C)C [diisopropyl sebacate] | – | 19
10 | CCOC(=O)CC(O)(CC(=O)OCC)C(=O)OCC [triethyl citrate] | – | 7
11 | CC(C)OC(=O)CCCCC(=O)OC(C)C [diisopropyl adipate] | – | 12

Reference: US12090220B2, “Efficient sunscreen compositions with diethylamino hydroxybenzoyl hexyl benzoate, butyl methoxydibenzoylmethane and organic particulate UV filter” (BASF SE, priority 2019, dated 2024)
